Results reported in patent publication US11851426B2, “Bicyclic amines as CDK2 inhibitors” (Incyte Corporation, priority 2019, dated 2023).

Target: CDK2/Cyclin E1 (Homo sapiens (Human), UniProt P24941)
Test: CDK2/Cyclin E1 HTRF enzyme activity assay
Assay type: biochemical
Conditions: 1 mM ATP; CDK2/Cyclin E1 0.25 nM; 60 minutes at room temperature
In short: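 HTRF read-out of 4E-BP1 (Thr37/46) peptide phosphorylation (ULight peptide 50 nM) by 0.25 nM baculovirus-made GST-CDK2/FLAG-Cyclin E1, with ATP at 50 μM or 1 mM, 60 min at room temperature, pH 7.5. Eu-anti-phospho antibody with EDTA quench; IC50 fitted by three- or four-parameter dose-response.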

Compound	IC50 [nM]
CC1CC(Oc2c(-c3cn[nH]c3)ncc3nc(N[C@H]4CCN(S(C)(=O)=O)C[C@H]4C)nn23)CCO1 (stereo partly drawn) [Example 112, N-((3R,4S)-3-Methyl-1-(methylsulfonyl)piperidin-4-yl)-5-((2-methyltetrahydro-2H-pyran-4-yl)oxy)-6-(1H-pyrazol-4-yl)-[1,2,4]triazolo[1,5-a]pyrazin-2-amine]	≤ 20
CS(=O)(=O)N1CCC(Nc2nc3c(OCC(F)(F)F)c(-c4cn[nH]c4)ccn3n2)CC1 [Example 10, N-(1-(methylsulfonyl)piperidin-4-yl)-7-(1H-pyrazol-4-yl)-8-(2,2,2-trifluoroethoxy)-[1,2,4]triazolo[1,5-a]pyridin-2-amine]	≤ 20
CS(=O)(=O)N1CCC(Nc2nc3cnc(-c4cn[nH]c4)c(N4CCC[C@@H](F)C4)n3n2)CC1 [Example 128, (R)-5-(3-Fluoropiperidin-1-yl)-N-(1-(methylsulfonyl)piperidin-4-yl)-6-(1H-pyrazol-4-yl)-[1,2,4]triazolo[1,5-a]pyrazin-2-amine]	≤ 20
C[C@@H]1CN(S(C)(=O)=O)CC[C@@H]1Nc1nc2cnc(-c3cn[nH]c3)c(OC3CCC3)n2n1 [Example 100, 5-Cyclobutoxy-N-((3R,4S)-3-methyl-1-(methylsulfonyl)piperidin-4-yl)-6-(1H-pyrazol-4-yl)-[1,2,4]triazolo[1,5-a]pyrazin-2-amine]	≤ 20
CS(=O)(=O)N1CCC(Nc2nc3cnc(-c4cn[nH]c4)c(N4CC[C@H](C(F)F)C4)n3n2)CC1 [Example 134, (S)-5-(3-(Difluoromethyl)pyrrolidin-1-yl)-N-(1-(methylsulfonyl)piperidin-4-yl)-6-(1H-pyrazol-4-yl)-[1,2,4]triazolo[1,5-a]pyrazin-2-amine]	≤ 20
C[C@@H]1CN(S(C)(=O)=O)CC[C@@H]1Nc1nc2c(OC3CCOC3)c(-c3cn[nH]c3)ccn2n1 (stereo partly drawn) [Example 40, N-((3R,4S)-3-methyl-1-(methylsulfonyl)piperidin-4-yl)-7-(1H-pyrazol-4-yl)-8-((tetrahydrofuran-3-yl)oxy)-[1,2,4]triazolo[1,5-a]pyridin-2-amine]	≤ 20
COC(=O)N1CCC(Oc2c(-c3cn[nH]c3)ccn3nc(NC4CCN(S(C)(=O)=O)CC4)nc23)CC1 [Example 18, Methyl 4-((2-((1-(methylsulfonyl)piperidin-4-yl)amino)-7-(1H-pyrazol-4-yl)-[1,2,4]triazolo[1,5-a]pyridin-8-yl)oxy)piperidine-1-carboxylate]	≤ 20
CS(=O)(=O)N1CCC(Nc2nc3c(N4CCCC(F)C4)c(-c4cn[nH]c4)ccn3n2)CC1 (stereo not shown) [Example 31, 8-(3-fluoropiperidin-1-yl)-N-(1-(methylsulfonyl)piperidin-4-yl)-7-(1H-pyrazol-4-yl)-[1,2,4]triazolo[1,5-a]pyridin-2-amine]	≤ 20
CCOc1c(-c2c[nH]nc2C)ccn2nc(NC3CCN(S(C)(=O)=O)CC3)nc12 [Example 17, 8-ethoxy-7-(3-methyl-1H-pyrazol-4-yl)-N-(1-(methylsulfonyl)piperidin-4-yl)-[1,2,4]triazolo[1,5-a]pyridin-2-amine]	≤ 20
CCN1CCN(CCCS(=O)(=O)N2CC[C@H](Nc3nc4c(OC(C)C)c(-c5cn[nH]c5)ncn4n3)[C@H](C)C2)CC1 [Example 62, N-((3R,4S)-1-((3-(4-Ethylpiperazin-1-yl)propyl)sulfonyl)-3-methylpiperidin-4-yl)-8-isopropoxy-7-(1H-pyrazol-4-yl)-[1,2,4]triazolo[1,5-c]pyrimidin-2-amine]	≤ 20
CS(=O)(=O)N1CCC(Nc2nc3cc(-c4cn[nH]c4)c(F)cn3n2)CC1 [Example 7, 6-fluoro-N-(1-(methylsulfonyl)piperidin-4-yl)-7-(1H-pyrazol-4-yl)-[1,2,4]triazolo[1,5-a]pyridin-2-amine]	≤ 20
CCOc1c(-c2cn[nH]c2)ccn2nc(N[C@H]3CCN(S(C)(=O)=O)C[C@H]3C)nc12 [Example 12, 8-ethoxy-N-((3R,4S)-3-methyl-1-(methylsulfonyl)piperidin-4-yl)-7-(1H-pyrazol-4-yl)-[1,2,4]triazolo[1,5-a]pyridin-2-amine]	≤ 20
CC(C)Oc1c(-c2cn[nH]c2)ccc2nc(N[C@H]3CCN(S(=O)(=O)C4CC4)C[C@H]3C)nn12 [Example 97, N-((3R,4S)-1-(Cyclopropylsulfonyl)-3-methylpiperidin-4-yl)-5-isopropoxy-6-(1H-pyrazol-4-yl)-[1,2,4]triazolo[1,5-a]pyridin-2-amine]	≤ 20
CCS(=O)(=O)N1CC[C@H](Nc2nc3cnc(-c4cn[nH]c4)c(OC4CCOCC4)n3n2)[C@H](C)C1 [Example 91, N-((3R,4S)-1-(Ethylsulfonyl)-3-methylpiperidin-4-yl)-6-(1H-pyrazol-4-yl)-5-((tetrahydro-2H-pyran-4-yl)oxy)-[1,2,4]triazolo[1,5-a]pyrazin-2-amine]	≤ 20
COCCOc1c(-c2cn[nH]c2)ccn2nc(NC3CCN(S(C)(=O)=O)CC3)nc12 [Example 6, 8-(2-methoxyethoxy)-N-(1-(methylsulfonyl)piperidin-4-yl)-7-(1H-pyrazol-4-yl)-[1,2,4]triazolo[1,5-a]pyridin-2-amine]	≤ 20
C[C@@H]1CN(S(C)(=O)=O)CC[C@@H]1Nc1nc2ccc(-c3cn[nH]c3)c(N3CCCCC3)n2n1 [Example 83, N-((3R,4S)-3-Methyl-1-(methylsulfonyl)piperidin-4-yl)-5-(piperidin-1-yl)-6-(1H-pyrazol-4-yl)-[1,2,4]triazolo[1,5-a]pyridin-2-amine]	≤ 20
CC(C)COc1c(-c2ccnc3[nH]ccc23)ccn2nc(NC3CCN(S(C)(=O)=O)CC3)nc12 [Example 15, 8-isobutoxy-N-(1-(methylsulfonyl)piperidin-4-yl)-7-(1H-pyrrolo[2,3-b]pyridin-4-yl)-[1,2,4]triazolo[1,5-a]pyridin-2-amine]	≤ 20
CC(C)Oc1c(-c2cn[nH]c2)ccc2nc(N[C@H]3CCN(S(C)(=O)=O)C[C@H]3C)nn12 [Example 68, 5-Isopropoxy-N-((3R,4S)-3-methyl-1-(methylsulfonyl)piperidin-4-yl)-6-(1H-pyrazol-4-yl)-[1,2,4]triazolo[1,5-a]pyridin-2-amine]	≤ 20
CC(C)Oc1c(-c2cn[nH]c2)ncn2nc(N[C@H]3CCN(S(=O)(=O)CCCN4CCN(C)CC4)C[C@H]3C)nc12 [Example 61, 8-Isopropoxy-N-((3R,4S)-3-methyl-1-((3-(4-methylpiperazin-1-yl)propyl)sulfonyl)piperidin-4-yl)-7-(1H-pyrazol-4-yl)-[1,2,4]triazolo[1,5-c]pyrimidin-2-amine]	≤ 20
CC(C)Oc1c(-c2cn[nH]c2)ncc2nc(NC3CCN(S(C)(=O)=O)CC3)nn12 [Example 141, 5-Isopropoxy-N-(1-(methylsulfonyl)piperidin-4-yl)-6-(1H-pyrazol-4-yl)-[1,2,4]triazolo[1,5-a]pyrazin-2-amine]	≤ 20
CS(=O)(=O)N1CCC(Nc2nc3ccc(-c4cn[nH]c4)c(OCC(F)(F)C(F)F)n3n2)CC1 [Example 81, N-(1-(Methylsulfonyl)piperidin-4-yl)-6-(1H-pyrazol-4-yl)-5-(2,2,3,3-tetrafluoropropoxy)-[1,2,4]triazolo[1,5-a]pyridin-2-amine]	≤ 20
CC(C)Oc1c(-c2cn[nH]c2)ncn2nc(N[C@H]3CCN(S(=O)(=O)CCCCN(C)C)C[C@H]3C)nc12 [Example 66]	≤ 20
